Reference: patent publication US10787607B2, “High efficiency fluorescent compound and method for preparing the same” (SNU R&DB FOUNDATION, priority 2011, dated 2020)

Experiments:
[1] = in ethanol; cited from earlier work
[2] = test system: Caspase-3 and PARP in osteosarcoma cell line (U2OS); test: Western Blotting Test, osteosarcoma cell line (U2OS); assay type: cell-based; settings: U2OS cells, 10 μM, FIG. 14
Method: (§1) After a certain period of time, the degree of cell extinction is evaluated by examining the degree of expression of extinction and damage of a specific factor by using Western Blotting Test and the result is shown in FIG. 14.

[3] = test system: breast epithelial cell line; test: Cytomorphology Test (microscopic examination of cultured cells); assay type: cell-based; settings: cultured about 72 hours, FIG. 12
Method: (§2) In the presence of a test compound or a comparative compound, a cell line is cultured for a certain period of time (about 72 hours) and then a cytotoxicity test is conducted. As a control group, a blank test is conducted in the same manner as above without adding any compound including the test compound and the comparative compound.

breast epithelial cell = test: Trypan Blue Exclusion Test; assay type: cell-based; settings: both test concentrations 1 μM and 10 μM, FIG. 13
Method: as §2

[4] = test system: Caspase-3 and PARP in breast epithelial cell line; test: Western Blotting Test, breast epithelial cell line; assay type: cell-based; settings: breast epithelial cell line, 1, 10 and 100 μM, FIG. 14
Method: as §1

CCN=c1cc2oc3cc(NCC)c(C)cc3c(-c3ccccc3C(=O)OCC)c-2cc1C.Cl [rhodamin 6G]
quantum yield of reference standard [1]: 0.95

COc1cc([C@@H]2c3cc4c(cc3[C@@H](O[C@@H]3O[C@@H]5CO[C@@H](C)O[C@H]5[C@H](O)[C@H]3O)[C@H]3COC(=O)[C@H]23)OCO4)cc(OC)c1O [Etoposide]
Western blot peaks from cell extinction and damage (Caspase-3, PARP) [2]: significantly remarkable peak at 17 kDa, 19 kDa and 89 kDa positions

CC(=O)/C=C/c1ccc2cc(O)cc(O)c2c1 [Example 1, (E)-4-(6,8-dihydroxynaphthalen-2-yl)but-3-en-2-one]
cytomorphology and number change of the cultured cell vs control group [3]: no significant difference from the control group
number of cells alive (trypan blue) vs control group (breast epithelial cell): number of cells similar to that of the control group
Western blot peaks from cell extinction and damage (Caspase-3, PARP) [4]: no peak at 17 kDa, 19 kDa and 89 kDa positions
